Laboratory results from patent US20110046066A1, “INHIBITORS OF IAP” (GENENTECH, INC., priority 2008, published 2011).
Where “and” joins values, the source holds several entries; their conditions need not be identical. Identical values can stand only once.

Tests used:
C-IAP1 BIR3 = target: T1, C-IAP1 BIR3 (Homo sapiens, UniProt Q13490); assay: Fluorescence polarization peptide binding assay, C-IAP1 BIR3; conditions: for IC50: 0.2 μM C-IAP1 BIR3, 5 nM AVP-diPhe-FAM probe, one hour incubation; for Ki: determined from the IC50 values (procedure of Keating et al.)
T1 construct: 0.2 μM C-IAP1 BIR3
Method: (§1) Polarization experiments were performed on an Analyst HT 96-384 reader (Molecular Devices Corp.) in order to determine dissociation constants (Kd) between IAP protein BIR domains and the fluorescent probe. Samples for fluorescence polarization affinity experiments were prepared by addition of serial dilutions of IAP BIR domains (C-IAP1 BIR3, C-IAP-2 BIR3, ML/X-IAP chimera MLXBIR3SG and X-IAP BIR3) in polarization buffer (50 mM Tris [pH 7.2], 120 mM NaCl, 1% bovine globulins 5 mM DTT and 0.05% octylglucoside) to 5-carboxyflourescein-conjugated AVPdi-Phe-NH2 (AVP-diPhe-FAM) at 5 nM final concentration.
(§2) The reactions were read after an incubation time of 1 hour at room temperature with standard cut-off filters for the fluorescein fluorophore (λex=485 nm; λem=530 nm) in 384-well black plates (Molecular Devices Corp.). Fluorescence polarization values were plotted as a function of the protein concentration, and the effective concentration 50 (EC50) values were obtained by fitting the data to a 4-parameter equation using Kaleidagraph software (Synergy software, Reading, Pa.). The apparent Kd values were determined from the EC50 values. Inhibition Constants (Ki values) for the antagonists were determined by the addition of 0.06 μM MLXBIR3SG, 0.5 μM X-IAP BIR3, 0.2 μM C-IAP1 BIR3 or 0.4 μM C-IAP-2 BIR3 to wells containing 5 nM of the AVP-diPhe-FAM probe as well as 1:3 serial dilutions of antagonist compounds starting at a concentration of 200 μM in the polarization buffer. Samples were read after an incubation time of one hour. Fluorescence polarization values were plotted as a function of the antagonist concentration, and the IC50 values were obtained by fitting the data to a 4-parameter equation using Kaleidagraph software (Synergy software, Reading, Pa.). Ki values for the antagonists were determined from the IC50 values according to the procedure of Keating, S. M., Marsters, J, Beresini, M., Ladner, C., Zioncheck, K., Clark, K., Arellano, F., and Bodary, S. (2000) in Proceedings of SPIE: In Vitro Diagnostic Instrumentation (Cohn, G. E., Ed.) pp 128-137, Bellingham, Wash. […] All values are micromolar.

X-IAP BIR3 = target: T2, X-IAP BIR3 (Homo sapiens, UniProt P98170); assay: Fluorescence polarization peptide binding assay, X-IAP BIR3; conditions: for IC50: 0.5 μM X-IAP BIR3, 5 nM AVP-diPhe-FAM probe, one hour incubation; for Ki: determined from the IC50 values (procedure of Keating et al.)
T2 construct: 0.5 μM X-IAP BIR3
Method: as §1, §2

C-IAP2 BIR3 = target: T3, C-IAP2 BIR3 (Homo sapiens, UniProt Q13489); assay: Fluorescence polarization peptide binding assay, C-IAP2 BIR3; conditions: for IC50: 0.4 μM C-IAP-2 BIR3, 5 nM AVP-diPhe-FAM probe, one hour incubation; for Ki: determined from the IC50 values (procedure of Keating et al.)
T3 construct: 0.4 μM C-IAP-2 BIR3
Method: as §1, §2

[1] = target: T4, ML/X-IAP chimera MLXBIR3SG (Homo sapiens, UniProt Q96CA5, S150G); assay: Fluorescence polarization peptide binding assay, MLXBIR3SG; conditions: for IC50: 0.06 μM MLXBIR3SG, 5 nM AVP-diPhe-FAM probe, one hour incubation; for Ki: determined from the IC50 values (procedure of Keating et al.)
T4 sequence (Q96CA5 with tags, fused parts or gaps S150G): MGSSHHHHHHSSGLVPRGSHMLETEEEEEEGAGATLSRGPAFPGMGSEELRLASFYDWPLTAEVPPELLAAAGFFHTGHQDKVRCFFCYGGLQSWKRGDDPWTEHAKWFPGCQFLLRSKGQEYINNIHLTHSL
Method: The following fluorescence polarization experiments used a chimeric BIR domain referred to as MLXBIR3SG in which 11 of 110 residues correspond to those found in XIAP BIR3, while the remainder correspond to ML-IAP BIR. […] The improved caspase-9 inhibition of the chimeric BIR domain MLXBIR3SG has been correlated with increased inhibition of doxorubicin-induced apoptosis when transfected into MCF7 cells.
as §1, §2

T2 sequence (P98170 241-356 limits assumed): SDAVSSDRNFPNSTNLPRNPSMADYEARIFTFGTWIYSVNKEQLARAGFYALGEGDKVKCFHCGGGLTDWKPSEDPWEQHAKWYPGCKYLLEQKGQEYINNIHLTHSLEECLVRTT
T3 sequence (Q13489 238-349 limits assumed): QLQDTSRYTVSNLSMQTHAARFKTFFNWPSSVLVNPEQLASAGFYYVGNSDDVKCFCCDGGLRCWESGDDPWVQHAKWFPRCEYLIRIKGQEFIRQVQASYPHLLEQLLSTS
T1 sequence (Q13490 253-363 limits assumed): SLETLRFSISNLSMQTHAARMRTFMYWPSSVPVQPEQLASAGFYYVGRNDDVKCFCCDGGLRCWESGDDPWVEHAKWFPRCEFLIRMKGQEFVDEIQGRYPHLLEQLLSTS

IC50 (C-IAP1 BIR3) | Ki (C-IAP1 BIR3) | IC50 (X-IAP BIR3) | Ki (X-IAP BIR3) | IC50 (C-IAP2 BIR3) | Ki (C-IAP2 BIR3) | IC50 [1] | Ki [1] | Structure (SMILES)
5.84 µM and 3.18 µM | 0.905 µM and 0.492 µM | > 200 µM | > 35 µM | – | – | – | – | CN[C@@H](C)C(=O)N[C@H](C(=O)N[C@H](C(=O)NCC(c1ccccc1)c1ccccc1)C(C)(C)OC)C1CCOCC1 [Compound 9]
2.55 µM | 0.395 µM | > 200 µM | > 35 µM | 4.34 µM | 0.937 µM | 2.48 µM | 0.564 µM | CN[C@@H](C)C(=O)N[C@H](C(=O)N[C@H](C(=O)NCC(c1ccccc1)c1ccccc1)C(C)(C)SCNC(C)=O)C1CCCCC1 [Compound 18]
3.64 µM | 0.564 µM | > 200 µM | > 35 µM | 7.57 µM | 1.63 µM | 2.9 µM | 0.661 µM | CN[C@H](C)C(=O)N[C@@H](C(=O)N[C@@H](C(=O)NCC(c1ccccc1)c1ccccc1)C(C)(C)C)C1CCCCC1 [Compound 15]
0.202 µM | 0.031 µM | 22.4 µM | 3.99 µM | 0.342 µM | 0.074 µM | 0.407 µM | 0.093 µM | CN[C@@H](C)C(=O)N[C@H](C(=O)N[C@H](C(=O)Nc1snnc1-c1ccccc1)C(C)(C)SCNC(C)=O)C1CCCCC1 [Compound 21]
13.5 µM | 2.09 µM | > 200 µM | > 35 µM | 34.5 µM | 7.44 µM | ~60 µM | 13.7 µM | CN[C@@H](C)C(=O)N[C@H](C(=O)N[C@H](C(=O)Nc1sc(-c2cnccn2)nc1-c1ccccc1)C(C)(C)C)c1ccccc1 [Compound 11]
3.89 µM | 0.602 µM | > 200 µM | > 35 µM | 6.25 µM | 1.35 µM | 4.22 µM | 0.963 µM | CN[C@@H](C)C(=O)N[C@H](C(=O)N[C@H](C(=O)NCC(c1ccccc1)c1ccccc1)C(C)(C)SC)C1CCCCC1 [Compound 13]
0.192 µM | 0.03 µM | 11.1 µM | 1.98 µM | 0.256 µM | 0.055 µM | 0.279 µM | 0.064 µM | CN[C@@H](C)C(=O)N[C@H](C(=O)N[C@H](C(=O)Nc1snnc1-c1ccccc1)C(C)(C)OC)C1CCCCC1 [Compound 2]
1.32 µM | 0.205 µM | > 200 µM | > 35 µM | 1.32 µM | 0.285 µM | 4.08 µM | 0.929 µM | CN[C@@H](C)C(=O)N[C@H](C(=O)N(C)[C@H](C(=O)Nc1snnc1-c1ccccc1)C(C)(C)C)C1CCCCC1 [Compound 24, (S)-2-((S)-2-cyclohexyl-N-methyl-2-((S)-2-(methylamino)propan-amido)acetamido)-3,3-dimethyl-N-(4-phenyl-1,2,3-thiadiazol-5-yl)butanamide]
0.283 µM and 0.165 µM | 0.044 µM and 0.026 µM | 9.94 µM and 14.8 µM | 1.77 µM and 2.63 µM | 0.468 µM and 0.225 µM | 0.101 µM and 0.049 µM | 0.189 µM and 0.181 µM | 0.043 µM and 0.041 µM | CN[C@@H](C)C(=O)N[C@H](C(=O)N[C@H](C(=O)Nc1snnc1-c1ccccc1)C(C)(C)C)C1CCCCC1 [Compound 1]
0.131 µM | 0.02 µM | 8.84 µM | 1.57 µM | 0.222 µM | 0.048 µM | 0.248 µM | 0.057 µM | CN[C@@H](C)C(=O)N[C@H](C(=O)N[C@H](C(=O)Nc1snnc1-c1ccccc1)C(C)(C)F)C1CCCCC1 [Compound 6]
3.12 µM | 0.483 µM | > 200 µM | > 35 µM | 1.94 µM | 0.419 µM | 0.899 µM | 0.205 µM | CN[C@@H](C)C(=O)N[C@H](C(=O)N[C@H](C(=O)NCC(c1ccccc1)c1ccccc1)C(F)(F)F)C1CCCCC1 [Compound 8]
14.2 µM | 3.12 µM | > 200 µM | > 35 µM | 27 µM | 4.57 µM | > 200 µM | > 46 µM | CN[C@@H](C)C(=O)N[C@H](C(=O)N(C)[C@H](C(=O)Nc1ccccc1-c1ncccn1)C(C)C)C1CCCCC1 [Compound 7]
0.14 µM | 0.0217 µM | 26.4 µM | 4.7 µM | 0.226 µM | 0.0488 µM | 0.25 µM | 0.057 µM | CN[C@@H](C)C(=O)N[C@H](C(=O)N(C)[C@H](C(=O)Nc1snnc1-c1ccccc1)C(C)C)C1CCCCC1 [Compound 14]
0.7 µM | 0.108 µM | 36.2 µM | 6.44 µM | 1.13 µM | 0.244 µM | 2.4 µM | 0.547 µM | CN[C@@H](C)C(=O)N[C@H](C(=O)N[C@H](C(=O)Nc1snnc1-c1ccccc1)C(C)(C)S(C)(=O)=O)C1CCCCC1 [Compound 10]
0.133 µM | 0.021 µM | 21.7 µM | 3.87 µM | 0.202 µM | 0.044 µM | 0.249 µM | 0.057 µM | CN[C@@H](C)C(=O)N[C@H](C(=O)N[C@H](C(=O)Nc1snnc1-c1ccccc1)C(C)(C)SC)C1CCCCC1 [Compound 20, (R)-2-((S)-2-cyclohexyl-2-((S)-2-(methylamino)propanamido)-acetamido)-3-methyl-3-(methylthio)-N-(4-phenyl-1,2,3-thiadiazol-5-yl)butanamide]
6.41 µM | 0.993 µM | > 200 µM | > 35 µM | 6.53 µM | 1.41 µM | 5.16 µM | 1.18 µM | CN[C@@H](C)C(=O)N[C@H](C(=O)N[C@H](C(=O)NCC(c1ccccc1)c1ccccc1)C(C)(C)SCc1ccc(OC)cc1)C1CCCCC1 [Compound 17]
6.88 µM | 1.06 µM | > 200 µM | > 35 µM | 19.1 µM | 4.13 µM | 2.54 µM | 0.579 µM | CN[C@@H](C)C(=O)N[C@H](C(=O)N[C@H](C(=O)NCC(c1ccccc1)c1ccccc1)C(C)(C)O)C(C)C [Compound 12]
0.245 µM | 0.038 µM | 11.2 µM | 1.99 µM | 0.272 µM | 0.059 µM | 0.178 µM | 0.041 µM | CN[C@@H](C)C(=O)N[C@H](C(=O)N[C@H](C(=O)Nc1snnc1-c1ccccc1)C1(C)CCOCC1)C1CCCCC1 [Compound 3]
2.29 µM | 0.354 µM | > 200 µM | > 35 µM | 2.45 µM | 0.53 µM | 8.88 µM | 2.02 µM | CN[C@@H](C)C(=O)N[C@H](C(=O)N[C@H](c1nc(-c2ccc(F)c3ccccc23)cs1)C(C)(C)SCc1ccc(OC)cc1)C1CCCCC1 [Compound 22]
0.289 µM | 0.045 µM | ~100 µM | 17.8 µM | 0.341 µM | 0.074 µM | 0.543 µM | 0.124 µM | CN[C@@H](C)C(=O)N[C@H](C(=O)N[C@H](C(=O)Nc1snnc1-c1ccccc1)C(C)(C)SCc1ccc(OC)cc1)C1CCCCC1 [Compound 19]
2.12 µM | 0.328 µM | 13.5 µM | 2.41 µM | 3.48 µM | 0.751 µM | 4.82 µM | 1.1 µM | CN[C@@H](C)C(=O)N[C@H](C(=O)N[C@H](C(=O)Nc1snnc1-c1ccccc1)C(F)(F)F)C1CCCCC1 [Compound 5]
